In patent publication US7468375B2 (Pfizer Inc., priority 2004, dated 2008):
Where two headings read alike, the source gives them in different places.

Columns and labels:
[1] = system: RF strain of HIV-1 in CEM-SS cells; assay: HIV-1 cell protection assay (XTT dye reduction); format: cell-based; conditions: HIV-1 RF, CEM-SS cells, XTT dye reduction, six days, read-out: EC50
Method in brief: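 CEM-SS cells infected with HIV-1 RF (moi 0.025–0.819) or mock-infected, 2×10^4 cells/well with half-log compound dilutions for six days. Viability by XTT/PMS reduction (4 h), absorbance 450 nm, as % of uninfected untreated cells. Therapeutic index = CC50/EC50.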

[2] = molecular target: T1, Full-length wild type HIV-1 integrase (SF1) (Human immunodeficiency virus type 1 group M subtype B, UniProt P04585); assay: Integrase strand-transfer scintillation proximity assay; format: biochemical; conditions: strand transfer, 50 min at 37° C., 246 nM integrase, 50 nM host DNA; read-out: IC50
T1 construct: made in house; host or cells: E. coli BL21 (DE3)
Source text: Integrase Strand-Transfer Scintillation Proximity Assay Oligonucleotides
Oligonucleotide #1-5′-(biotin)[…]-3′ (SEQ ID NO: 1) and oligonucleotide #2-5′-[…]-3′ (SEQ ID NO: 2), were synthesized by TriLink BioTechnologies, Inc. (San Diego, Calif.). The annealed product represents preprocessed viral ds-DNA derived from the LTR U5 sequence of the viral genome. A ds-DNA control to test for non-specific interactions was made using a 3′ di-deoxy derivative of oligonucleotide #1 annealed to oligonucleotide #2. The CA overhang at the 5′ end of the non-biotinylated strand of the ds-DNA was created artificially by using a complimentary DNA oligonucleotide shortened by 2 base pairs. This configuration eliminates the requisite 3′ processing step of the integrase enzyme prior to the strand-transfer mechanism. Host ds-DNA was prepared as an unlabeled and [^3H]-thymidine labeled product from annealed oligonucleotide #3-5-[…]-3′ (SEQ ID NO: 3), and oligonucleotide #4-5′-[…]-3′ (SEQ ID NO: 4), both synthesized by TriLink BioTechnologies, Inc. (San Diego, Calif.). The annealed product had overhanging 3′ ends of poly(dA). Host DNA was custom radiolabeled by PerkinElmer Life Sciences Inc. (Boston, Mass.) using an enzymatic method with a 12/1 ratio of [methyl-3H]dTTP/cold ds-DNA to yield 5′-blunt end ds-DNA with a specific activity of >900 Ci/mmol. The radiolabeled product was purified using a NENSORB cartridge and stored in stabilized aqueous solution (PerkinElmer). The final radiolabeled product had six [^3H]-thymidine nucleotides at both 5′ ends of the host ds-DNA. Reagents: Streptavidin-coated polyvinyltoluene (PVT) SPA beads were purchased from Amersham Biosciences (Piscataway, N.J.). Cesium chloride was purchased from Shelton Scientific, Inc. (Shelton, Conn.). White, polystyrene, flat-bottom, non-binding surface, 96-well plates were purchased from Corning. All other buffer components were purchased from Sigma (St. Louis, Mo.) unless otherwise indicated.
Enzyme Construction: Full-length wild type HIV-1 integrase (SF1) sequence (amino acids 1-288) was constructed in a pET24a vector (Novagen, Madison, Wis.). The construct was confirmed through DNA sequencing. Enzyme Purification: Full length wild-type HIV Integrase was expressed in E. coli BL21 (DE3) cells and induced with 1 mM isopropyl-1 thio-β-D-galactopyranoside (IPTG) when cells reached an optical density between 0.8-1.0 at 600 nm. Cells were lysed by microfluidation in 50 mM HEPES pH 7.0, 75 mM NaCl, 5 mM DTT, 1 mM 4-(2-Aminoethyl)benzenesulfonylfluoride HCl (AEBSF). Lysate was then centrifuged 20 minutes at 11 k rpm in GSA rotor in Sorvall RC-5B at 4° C. Supernant was discarded and pellet resuspended in 50 mM HEPES pH 7.0, 750 mM NaCl, 5 mM DTT, 1 mM AEBSF and homogenized in a 40 mL Dounce homogenizer for 20 minutes on ice. Homogenate was then centrifuged 20 minutes at 11 k rpm in SS34 rotor in Sorvall RC-5B at 4° C. Supernant was discarded and pellet resuspended in 50 mM HEPES pH 7.0, 750 mM NaCl, 25 mM CHAPS, 5 mM DTT, 1 mM AEBSF. Preparation was then centrifuged 20 minutes at 11 k rpm in SS34 rotor in Sorvall RC-5B at 4° C. Supernant was then diluted 1:1 with 50 mM HEPES pH 7.0, 25 mM CHAPS, 1 mM DTT, 1 mM AEBSF and loaded onto a Q-Sepharose column pre-equilibrated with 50 mM HEPES, pH 7.0, 375 mM NaCl, 25 mM CHAPS, 1 mM DTT, 1 mM AEBSF. The flow through peak was collected and NaCl diluted to 0.1 M with 50 mM HEPES pH 7.0, 25 mM CHAPS, 1 mM DTT, 0.5 mM AEBSF and loaded onto a SP-Sepharose column pre-equilibrated with 50 mM HEPES pH 7.0, 100 mM NaCl, 25 mM CHAPS, 1 mM DTT, 0.5 mM AEBSF. After washing the column with the equilibration buffer, a 100 to 400 mM NaCl gradient was run. The eluted integrase was concentrated and run on a S-300 gel diffusion column using 50 mM HEPES pH 7.0, 500 mM NaCl, 25 mM CHAPS, 1 mM DTT, 0.5 mM AEBSF. The peak from this column was concentrated to 0.76 mg/mL and stored at −70° C. and later used for strand transfer assays. […]

[3] = Human immunodeficiency virus 1, CEM-SS, 144 h

Compound `CONC(=O)c1ncc2c(ccn2Cc2ccc(F)cc2)c1O` [Example 43, 1-(4-Fluorobenzyl)-4-hydroxy-N-methoxy-1H-pyrrolo[2,3-c]pyridine-5-carboxamide] has an EC50 [1, 3] of 420 nM and an IC50 [2] of 371 nM.

`COc1c(C(=O)N(C)O)ncc2c1ccn2Cc1ccc(F)cc1` [Example 44, 1-(4-Fluorobenzyl)-N-hydroxy-4-methoxy-N-methyl-1H-pyrrolo[2,3-c]pyridine-5-carboxamide] showed an EC50 [1, 3] of 1200 nM and an IC50 [2] of 2250 nM.

Work on `CCN1CCCC1CNCc1cn(Cc2ccc(F)cc2F)c2cnc(C(=O)NO)cc12` (stereo not shown) [Example 45, 1-(2,4-Difluorobenzyl)-3-({[(1-ethylpyrrolidin-2-yl)methyl]amino}methyl)-N hydroxy-1H-pyrrolo[2,3-c]pyridine-5-carboxamide] yielded an EC50 [1] of 51 nM and an IC50 [2] of 295 nM.

`CCN1CCCC1CNCc1cn(Cc2ccc(F)cc2F)c2cnc(C(=O)NOC)cc12` (stereo not shown) [Example 46, 1-(2,4-Difluorobenzyl)-3-({[(1-ethylpyrrolidin-2-yl)methyl]amino}methyl)-N-methoxy-1H-pyrrolo[2,3-c]pyridine-5-carboxamide] was tested, and the EC50 [1, 3] was 130 nM and the IC50 [2] was 912 nM.

Work on `CN1CCCC1CCNCc1cn(Cc2ccc(F)cc2F)c2cnc(C(=O)NO)cc12` (stereo not shown) [Example 51, 1-(2,4-Difluorobenzyl)-N-hydroxy-3-({[2-(1-methylpyrrolidin-2-yl)ethyl]amino}methyl)-1H-pyrrolo[2,3-c]pyridine-5-carboxamide] yielded an EC50 [1, 3] of 230 nM and an IC50 [2] of 752 nM.

Compound `CN1CCN(CCCNCc2cn(Cc3ccc(F)cc3F)c3cnc(C(=O)NO)cc23)CC1` [Example 52, 1-(2,4-Difluorobenzyl)-N-hydroxy-3-({[3-(4-methylpiperazin-1-yl)propyl]amino}methyl)-1H-pyrrolo[2,3-c]pyridine-5-carboxamide] has an EC50 [1, 3] of 260 nM and an IC50 [2] of 781 nM.

`CC(CO)NCc1cn(Cc2ccc(F)cc2F)c2cnc(C(=O)NO)cc12` (stereo not shown) [Example 53, 1-(2,4-Difluorobenzyl)-N-hydroxy-3-{[(2-hydroxy-1-methylethyl)amino]methyl}-1H-pyrrolo[2,3-c]pyridine-5-carboxamide] gave an EC50 [1, 3] of 11 nM and an IC50 [2] of 359 nM.

With `O=C(NO)c1cc2c(CNCCN3CCOCC3)cn(Cc3ccc(F)cc3F)c2cn1` [Example 54] the EC50 [1, 3] was 38 nM and the IC50 [2] was 746 nM.

For `O=C(NO)c1cc2c(CNCc3ccccn3)cn(Cc3ccc(F)cc3F)c2cn1` [Example 55, 1-(2,4-Difluorobenzyl)-N-hydroxy-3-{[(pyridin-2-ylmethyl)amino]methyl}-1H-pyrrolo[2,3-c]pyridine-5-carboxamide], the EC50 [1, 3] was 20 nM and the IC50 [2] was 216 nM.

For `O=C(NO)c1cc2c(CNCCc3ccccn3)cn(Cc3ccc(F)cc3F)c2cn1` [Example 56], the EC50 [1, 3] was 11 nM and the IC50 [2] was 278 nM.

With `O=C(NO)c1cc2c(CNCCN3CCCC3)cn(Cc3ccc(F)cc3F)c2cn1` [Example 57, 1-(2,4-Difluorobenzyl)-N-hydroxy-3-{[(2-pyrrolidin-1-ylethyl)amino]methyl}-1H-pyrrolo[2,3-c]pyridine-5-carboxamide] the EC50 [1, 3] was 24 nM and the IC50 [2] was 542 nM.

Work on `O=C(NO)c1cc2c(CNCCOCCO)cn(Cc3ccc(F)cc3F)c2cn1` [Example 58, 1-(2,4-Difluorobenzyl)-N-hydroxy-3-({[2-(2-hydroxyethoxy)ethyl]amino}methyl)-1H-pyrrolo[2,3-c]pyridine-5-carboxamide] yielded an EC50 [1, 3] of 100 nM and an IC50 [2] of 585 nM.

For `O=C(NO)c1cc2c(CN[C@@H](CO)c3ccccc3)cn(Cc3ccc(F)cc3F)c2cn1` [Example 59, 1-(2,4-Difluorobenzyl)-N-hydroxy-3-({[(1R)-2-hydroxy-1-phenylethyl]amino}methyl)-1H-pyrrolo[2,3-c]pyridine-5-carboxamide], the EC50 [1, 3] was 18 nM and the IC50 [2] was 221 nM.

`O=C(NO)c1cc2c(CNCC3CCCO3)cn(Cc3ccc(F)cc3F)c2cn1` (stereo not shown) [Example 60, 1-(2,4-Difluorobenzyl)-N-hydroxy-3-{[(tetrahydrofuran-2-ylmethyl)amino]methyl}-1H-pyrrolo[2,3-c]pyridine-5-carboxamide] was tested, and the EC50 [1, 3] was 12 nM and the IC50 [2] was 521 nM.
